Experimental data as given in PubChem BioAssay AID1996.
Values after ≈ are worked out from the molar mass of the structure shown.

Settings: buffer; pH 7.4; 200.0 µM

solubility kinetic	SMILES
1.4 µg/mL (≈ 4.15 µM)	CC(=O)c1ccc(N2CCN(C(=O)Nc3ccc(C)cc3)CC2)cc1
> 47.2 µg/mL	COC(=O)Cn1cnc2scc(-c3ccc(C)cc3)c2c1=O
39.8 µg/mL (≈ 108 µM)	O=C(CNC(=O)c1ccc(Br)o1)NCCc1ccc(F)cc1
41.7 µg/mL (≈ 142 µM)	CN(C(=O)Cn1cc([N+](=O)[O-])ccc1=O)C1CCCCC1
39.8 µg/mL (≈ 138 µM)	COc1ccc2oc(C(=O)NCC3CCCO3)c(C)c2c1 (centres undefined)
1 µg/mL (≈ 3.46 µM)	O=C(NCc1ccc(F)cc1)Nc1cccc([N+](=O)[O-])c1
< 0.3 µg/mL	COc1cccc(-c2nc3ccc([N+](=O)[O-])cc3o2)c1
> 31.2 µg/mL	CNc1cc(C)nc(N2CCOCC2)n1
> 59.9 µg/mL	Cc1nc(NC(=O)COC(=O)C2CC3CCCC(C2)C3=O)c(Cl)cc1Cl (centres undefined)
33.3 µg/mL (≈ 136 µM)	CC(C)NC(=O)C(=O)c1cn(C)c2ccccc12
< 0.1 µg/mL	CC(C)Nc1nc(-c2cccnc2)nc(-c2ccccc2)c1C#N
> 49.1 µg/mL	O=C(O)CC(CC(=O)Nc1ccc(C(=O)O)cc1)c1ccccc1 (centres undefined)
36.7 µg/mL (≈ 104 µM)	CC1CC(C)(C)NC(=S)N1CCCC(=O)Nc1ccc(Cl)cc1 (centres undefined)
44 µg/mL (≈ 147 µM)	O=S(=O)(NC(=S)NC1CCCCC1)c1ccccc1
42.6 µg/mL (≈ 128 µM)	Cc1nonc1OCCN1CCN(c2ccc([N+](=O)[O-])cc2)CC1
1.7 µg/mL (≈ 5.42 µM)	CCC(=O)Nc1nc2ccccc2n1Cc1ccccc1Cl
37.6 µg/mL (≈ 145 µM)	CC(=O)Oc1ccc(C(=O)NCc2ccco2)cc1
36.7 µg/mL (≈ 135 µM)	CC(=O)c1ccc(NC(=O)CCc2ccc(C)o2)cc1
> 35 µg/mL	CCOc1c(Nc2ccccc2O)c(=O)c1=O
37.3 µg/mL (≈ 104 µM)	CC(C)N(Cc1nc(-c2ccc3c(c2)OCO3)no1)CC1CCC(=O)N1 (centres undefined)
1.8 µg/mL (≈ 5.57 µM)	Cc1cc(C)cc(NC(=O)CN2CCN(c3ccccc3)CC2)c1
> 36.8 µg/mL	COc1cccc2c(=O)c3c([nH]c12)OC(C)(C)C3
0.8 µg/mL (≈ 2.6 µM)	COc1ccc(N2C(=O)C(F)(F)C2c2ccccc2F)cc1 (centres undefined)

solubility kinetic	SMILES
> 54.9 µg/mL	CCOC(=O)Cn1nc(C)c(NC(=O)COc2cccc(Cl)c2)c1C
> 29.4 µg/mL	COc1ccc(/C(N)=N/O)c(OC)c1
2.5 µg/mL (≈ 8.58 µM)	COc1ccccc1CC(=O)Nc1cccc2ccccc12
0.6 µg/mL (≈ 1.9 µM)	Cc1ccc(C)c(NC(=O)c2cc([N+](=O)[O-])cc([N+](=O)[O-])c2)c1
33.6 µg/mL (≈ 103 µM)	O=C(NCCOc1ccc(Cl)cc1)C(=O)NCC1CCCO1 (centres undefined)
> 50.9 µg/mL	CSc1ccc(CN(C)C(=O)c2cc(=O)c3ccccc3o2)cc1
7.6 µg/mL (≈ 25.9 µM)	Cc1ccc(CC2C(=O)N(c3ccccc3)C(=O)C2C)cc1 (centres undefined)
> 43.1 µg/mL	Cc1cc(NC(=O)CSc2c[nH]c3ccccc23)no1
1.7 µg/mL (≈ 5.88 µM)	CCOC(=O)c1[nH]c2ccccc2c1NC(=O)NC(C)C
25.8 µg/mL (≈ 84.8 µM)	Cc1cc(C)c(C)c(S(=O)(=O)NCc2ccncc2)c1C
10.7 µg/mL (≈ 32.2 µM)	CCc1sc(C(=O)N2CCN(c3ccc(F)cc3)CC2)cc1C
> 39.8 µg/mL	CC(=O)Nc1ccc2c(c1)nc(C)n2-c1ccccc1
> 49.1 µg/mL	Cc1cccc(C)c1NC(=S)N/N=C/c1ccc(C(=O)O)cc1
22.4 µg/mL (≈ 71.5 µM)	COc1ccc(NS(=O)(=O)c2cccc3ccccc23)cc1
< 0.6 µg/mL	COC(=O)NC1c2ccccc2Oc2ccc(C)cc21 (centres undefined)
> 44.6 µg/mL	CCC(CO)NCC(O)COCc1ccc2c(c1)OCO2 (centres undefined)
14.2 µg/mL (≈ 47.4 µM)	CCCNC(=O)c1oc2ccc3c(c2c1C)C=CC(C)(C)O3
> 51.1 µg/mL	CCOC(=O)C1CCN(C(=O)CSc2nc(N)cc(=O)[nH]2)CC1
6.7 µg/mL (≈ 20.6 µM)	CC(=O)c1ccc(-c2ccc(C(=O)NC3CCCCCC3)o2)cc1
> 50.6 µg/mL	COC(=O)C1CCN(CC(=O)NC(=O)Nc2ccccc2F)CC1
62.5 µg/mL (≈ 150 µM)	CCOc1cccc(C2C(C(=O)c3ccc(C)o3)=C(O)C(=O)N2Cc2ccccc2)c1 (centres undefined)
38.8 µg/mL (≈ 134 µM)	CCCNC(=O)N1CCC(c2ccc3c(c2)OCO3)CC1
0.9 µg/mL (≈ 2.44 µM)	COc1ccc(N2C(=O)C3C(C2=O)C3(c2ccccc2)c2ccccc2)cc1 (centres undefined)

solubility kinetic	SMILES
> 45.7 µg/mL	O=C(Nc1cccc(NC(=O)C2CCCO2)c1)C1CCCO1 (centres undefined)
29.5 µg/mL (≈ 92.7 µM)	CC(NC(=O)c1ccc([N+](=O)[O-])o1)C12CC3CC(CC(C3)C1)C2 (centres undefined)
> 35.3 µg/mL	Cc1ccc(OCC(O)CN2CCCC2)cc1 (centres undefined)
> 42 µg/mL	O=C1[C@@H]2CSCN2C(=O)CN1Cc1ccc(F)cc1
1.9 µg/mL (≈ 6.43 µM)	COc1cccc(NC(=O)c2cc(=O)c3ccccc3o2)c1
18.4 µg/mL (≈ 56.7 µM)	CC1CCCC(NC(=O)COC(=O)c2ccc([N+](=O)[O-])o2)C1C (centres undefined)
1.3 µg/mL (≈ 3.75 µM)	COc1ccc(CNC(=O)CCC(=O)Nc2ccc(Cl)cc2)cc1
21.4 µg/mL (≈ 80.7 µM)	O=c1oc2ccccc2nc1/C=C(\O)c1ccccc1
22.6 µg/mL (≈ 83.3 µM)	Cc1ccc2c(CN3CCCCC3)cc(=O)oc2c1C
> 42.9 µg/mL	CC(=O)CCN1C(=O)NC2(CCCc3ccccc32)C1=O (centres undefined)
11.7 µg/mL (≈ 34.3 µM)	O=C(COC(=O)c1ccc2c(c1)OCCO2)NCCc1ccccc1
1.8 µg/mL (≈ 5.84 µM)	O=C(CN1C(=O)c2cccc3cccc1c23)NC1CCCCC1
33.6 µg/mL (≈ 129 µM)	CCOc1ccccc1NC(=O)Cc1cccs1
> 47.8 µg/mL	CC(OC(=O)c1cccnc1Cl)C(=O)NCc1ccccc1 (centres undefined)
0.2 µg/mL (≈ 0.655 µM)	Cc1cccc(-c2ncc(S(=O)(=O)C(C)(C)C)c(N)n2)c1
> 44 µg/mL	CC(C)(C)n1cnc2cc(NC(=O)c3ccccc3)ccc21
28.3 µg/mL (≈ 91.7 µM)	CCCCCC(=O)NC(=S)NC1C2CC3CC(C2)CC1C3 (centres undefined)
6.5 µg/mL (≈ 20.9 µM)	Cc1onc(-c2ccccc2)c1C(=O)NCc1ccccc1F
1.8 µg/mL (≈ 4.72 µM)	O=[N+]([O-])c1cccc(S(=O)(=O)/N=C(/Nc2ccccc2)c2ccccc2)c1
< 0.4 µg/mL	CC1Cc2ccccc2N1S(=O)(=O)c1cnc(Cl)c(Br)c1 (centres undefined)
4.6 µg/mL (≈ 13.4 µM)	Cc1cc(N2CCOCC2)nc2ccc(NC(=S)NC(C)C)cc12
44.5 µg/mL (≈ 148 µM)	COc1ccc(C(=O)COC(=O)c2ccccn2)cc1OC
1.6 µg/mL (≈ 5.06 µM)	COc1ccccc1Cn1c(=S)[nH]c2ccc(F)cc2c1=O

solubility kinetic	SMILES
36.2 µg/mL (≈ 114 µM)	COc1ccc(S(=O)(=O)n2c(C)nc3ccccc32)cc1C
< 0.6 µg/mL	COC(=O)c1cc(C)ccc1OCc1ccc([N+](=O)[O-])cc1
40.7 µg/mL (≈ 114 µM)	COc1ccccc1N1CCN(CCN2C(=O)C3CCCN3C2=O)CC1 (centres undefined)
> 52.3 µg/mL	CC(=O)c1ccc(N2CCN(C(=S)NCCCN(C)C)CC2)cc1
29.9 µg/mL (≈ 118 µM)	COC(=O)CSc1ncnc2c(C)csc12
36.2 µg/mL (≈ 126 µM)	Cc1ccc(NC(=S)NCc2ccc(F)cc2)c(C)c1
43.1 µg/mL (≈ 150 µM)	O=C(O)C1Cc2[nH]cnc2C(c2cccc([N+](=O)[O-])c2)N1 (centres undefined)
> 48.9 µg/mL	O=C(O)c1cccc(Nc2c([N+](=O)[O-])c(=O)oc3ccccc23)c1
15.4 µg/mL (≈ 54.7 µM)	O=C(CCc1ccccc1)Nc1ccc2c(c1)C(=O)OC2
7.5 µg/mL (≈ 21.8 µM)	CC(=O)Nc1ccc(C(=O)NCC(=O)OCc2ccccc2F)cc1
8.8 µg/mL (≈ 31.3 µM)	Cc1cc(C)c(C(=O)NCC(=O)c2ccccc2)c(C)c1
> 42.5 µg/mL	COc1ccc(CCNc2ncccc2C#N)cc1OC
> 27.9 µg/mL	COC(=O)/C=C1\SC(N)=NC1=O
> 39.2 µg/mL	CC(NC(=O)COC(=O)C1CC1C)c1ccccc1 (centres undefined)
32.1 µg/mL (≈ 134 µM)	O=C(NCc1ccccc1Cl)C1CCCO1 (centres undefined)
13.5 µg/mL (≈ 39.8 µM)	CC(C)Oc1ccc(C(=O)Nc2ccc3c(c2)n(C)c(=O)n3C)cc1
3.3 µg/mL (≈ 10.8 µM)	O=c1[nH]c(O)c(/C=C2\C=Nc3ccc(Br)cc32)[nH]1
44.4 µg/mL (≈ 139 µM)	Cc1cnc([N+](=O)[O-])n1CCOC(=O)NC(=O)c1ccccc1
> 40.7 µg/mL	C/C=C(\C)C(=O)N1CCC(C(=O)c2ccccc2)CC1
43.1 µg/mL (≈ 140 µM)	O=C(CN1C(=O)C(=O)c2ccccc21)NCCc1ccccc1
49.6 µg/mL (≈ 147 µM)	COC(=O)c1ccccc1Oc1ccc(NC(=O)c2ccco2)cc1
44.3 µg/mL (≈ 117 µM)	CN(C)CCCNC(NC(=O)/C=C/c1ccccc1)C(Cl)(Cl)Cl (centres undefined)
> 40.1 µg/mL	CNC(=S)N1CCC(NC(=O)c2ccco2)CC1

solubility kinetic	SMILES
20.1 µg/mL (≈ 59.9 µM)	Cc1cc(CNC(=O)c2ccc(C)c([N+](=O)[O-])c2)c2ccccc2n1
41.3 µg/mL	CCC(C)Nc1nc(C)nc2c1oc1ccccc12.Cl (centres undefined)
29.9 µg/mL (≈ 122 µM)	Cc1ccc(C)c(SCC(=O)c2ccc[nH]2)c1
> 31.8 µg/mL	Fc1ccccc1-c1nc2ccccc2[nH]1
> 50.9 µg/mL	CC(=O)C1=C(O)C(=O)N(c2cccnc2)C1c1cccc([N+](=O)[O-])c1 (centres undefined)
> 43.4 µg/mL	COC(=O)c1ccc(COc2ccc(NC(C)=O)cc2)o1
> 40.7 µg/mL	COc1ccc(S(=O)(=O)N2CCN(C)CC2)cn1
18.1 µg/mL (≈ 65.5 µM)	CC1Oc2ccccc2OC1C(=O)Nc1nccs1 (centres undefined)
21.1 µg/mL (≈ 42.3 µM)	Cc1ccc(NC(=O)COc2ccc(Br)cc2CO)cc1S(=O)(=O)N1CCOCC1
> 41.5 µg/mL	CC[n+]1ccc(C(=O)NCc2ccccc2)cc1.[Cl-]
> 34.7 µg/mL	O=C(Nc1cccnc1)Nc1cccc(F)c1
> 54.2 µg/mL	CCOC(=O)Cn1nc(C)c(NC(=O)COc2ccc(OC)cc2)c1C
7.2 µg/mL (≈ 24.3 µM)	C=CCNC(=S)N(Cc1ccccc1)Cc1ccccc1
3.3 µg/mL (≈ 9.67 µM)	C=CCNc1nc2c(c(=O)[nH]c(=O)n2C)n1CCOc1ccccc1
1.6 µg/mL (≈ 5.09 µM)	COc1ccccc1CNC(=O)c1cc(C(=O)CC(C)C)c[nH]1
> 46.8 µg/mL	Cc1csc(C)[n+]1CC(=O)c1ccccc1.[Br-]
> 56.5 µg/mL	COc1ccccc1CN(C)C(=O)CSCC(=O)Nc1ccccc1F
> 36.9 µg/mL	Cc1ccc(C)c(N2N=C(C(=O)O)CCC2=O)c1
> 52.8 µg/mL	NC(=O)C1CCCN(C(=O)CCCNC(=O)c2ccc(Cl)cc2)C1 (centres undefined)
17.1 µg/mL (≈ 61 µM)	CCC(O)c1nc2ccccc2n1CCc1ccccc1 (centres undefined)
> 41.4 µg/mL	COCCN1CCn2c(nc3cc([N+](=O)[O-])ccc32)C1
22.5 µg/mL (≈ 79.1 µM)	CC1CCCCN1S(=O)(=O)c1ccc([N+](=O)[O-])cc1 (centres undefined)
11.8 µg/mL (≈ 34.5 µM)	Cc1ccc2oc(=O)c3cc(C(=O)N4CCN(C)CC4)sc3c2c1

SMILES	solubility kinetic
Cc1cccc(C)c1OCCCCN1CCNCC1.O=C(O)C(=O)O	46 µg/mL
Fc1ccc(OCCOCCN2CCNCC2)cc1.O=C(O)C(=O)O	51 µg/mL
Cn1cc(C(=O)OCC(=O)NC2(C#N)CCCC2)c2ccccc21	> 48.8 µg/mL
Cc1ccc(C)c(OCCCCN2CCNCC2)c1C.O=C(O)C(=O)O	> 55 µg/mL
